Key:
ARPE-19 cells under UOS = assay: Western blot of pro-survival and pro-apoptotic proteins in RPE cells under UOS; type: cell-based, human; conditions: for Prohibitin (type-1) expression: sodium salts and methyl ester forms, concentration-dependent 100-200 nM; for pro-apoptotic Bax / pro-apoptotic Bid / pro-apoptotic Bim: sodium salts or methyl esters
Experimental: ARPE19 cells at 75-80% confluence (72 h growth in DMEM/F12+10% FBS) in 6-well plates were serum-starved for 8 h before exposure. The serum-starved cells were treated with TNF-α (Sigma-Aldrich, St. Louis, Mo.) (10 ng/ml) and H2O2 (600 μM) to induce oxidative stress and challenged with increasing concentrations (50-500 nM) of VLC-PUFA (C32:6n3 and C34:6n3) simultaneously with oxidative stress for 16 h (apoptosis) and 6 h (Western-blot) before detection of apoptosis and harvesting for protein analysis. In some experiments, DHA at a concentration of 100 nM and 15-LOX-1 inhibitor PD146176 at a concentration of 1 μM was added to treat the RPE cells under stress. Cell extracts were made and protein concentrations adjusted by Bio-Rad (Hercules, Calif.) protein reagent and used for Western blot analysis.
Bcl-2 family proteins, SIRT1 and Proinhibitin (type-1), and Iduna proteins were analyze by Western blot analysis. In brief, 20-25 μg equivalents of each cell extracts were subject to electrophoresis on a 4-12% gel (Promega) at 125 V for 2 h. The proteins were transferred to nitrocellulose membrane by I-blot transfer apparatus. The membranes were subjected to treatment with primary antibodies specific for Bcl-2, Bcl-xL, Bax, Bid, Bim, SIRT1 and Prohibitin (type-1) (Santa Cruz Biotechnology) and Iduna antibody (Neuro-Mab Lab, UCLA, Los Angeles, Calif.) overnight at 4° C. and probed for 45 mins with secondary antibody, goat anti-mouse Ig:horseradish peroxidase, and horseradish peroxidase-conjugated anti-biotin antibody, and then proteins were evaluated by using an ECL kit (Amersham).

[1] = tested on: cerebral-cortical mixed neuronal cells and hippocampal neurons; assay: NMDA excitotoxicity of neurons in culture, cell viability; type: cell-based, rat
Description: Primary cultures of cortical and hippocampal neurons were harvested from 18-day-old embryos (E18) taken from timed-pregnant, two-month-old Sprague-Dawley (SD) rats (Charles River Lab., Wilmington, Mass.). Briefly, timed-pregnant SD rats were euthanized and embryos were collected in sterile conditions. Embryonic brains were dissected out by forceps on ice and placed in a petri dish containing ice-cold Hank's Balanced Salt Solution (HBSS) (GIBCO). Meninges were removed under a dissecting microscope and cortical tissues were chopped into small pieces with micro-spring scissors. These tissues were transferred to 15 ml tubes containing trypsin-EDTA (0.025% in HBSS) and DNase I. The tubes were incubated in 37° C. chamber for 15 mins and were agitated every 5 mins. After stopping the trypsinization with 5 ml 10% FBS, these tissues were triturated 15 times with a fire polished Pasteur pipet. Cell clumps were left to settle for 2 mins and the supernatant was transferred to a 15 ml Eppendorf tube. The supernatant was filtered through a 70 μm pore-sized filter (Corning cell strainer) and centrifuged for 5 mins at 1000 rpm. The cells were then resuspended in Neurobasal medium (GIBCO) containing 2% B27 (GIBCO) and 2% N2 (GIBCO) supplements, along with 0.5 mM glutamine, 50 U/ml penicillin/streptomycin.
Cells were counted using a Neubauer hemocytometer. 1×10^6 cells were seeded on poly-D-lysine-coated 12 well cell culture dish (CORNING) and cultured in incubator (37° C., 5% CO2). Culture medium was first replaced after 24 h, then half of the medium was replaced with fresh medium every three days. As a result, approximately, 90% purity of neurons was obtained as determined by class-III-β tubulin, GFAP and Hoechst 33258 staining. Cells were maintained in culture for about 2 weeks until they were exposed to uncompensated oxidative stress, OGD, or NMDA excitotoxicity.
After 90 mins of OGD exposure, cells were returned to the original medium (Neurobasal medium (GIBCO) containing 2% B27 (GIBCO) and 2% N2 (GIBCO) supplements, along with 0.5 mM glutamine, 50 U/ml penicillin/streptomycin) and placed in a normoxic chamber (37° C., 5% CO2) for 2 h. Then the medium was changed with medium containing either ELV-N32 or ELV-N34 [500 nM] and maintained in a normoxic chamber (37° C., 5% CO2) for 12 h, after which cells were sampled and assayed for cell viability using different methods as previously described (25-28). Cerebral cortical mixed neuronal cells or hippocampal cells in culture were exposed to either NMDA or uncompensated oxidative stress (UOS) for 12 h by addition of either NMDA (25 μM, 50 μM, or 100 μM) concentration or by the addition of TNFα (10 ng/mL) and H2O2 (50 μM, 100 μM, or 200 μM). Cell viability and neuroprotection in the presence of ELV-N32, ELV-N34, 32:6, or 34:6 were assayed after 12 h.
Cells were washed with 1× Dulbecco's Phosphate Buffered Saline (DPBS) containing no calcium or magnesium (GIBCO) and fixed for 10 mins using ice-cold 4% paraformaldehyde (PFA) followed by 15 mins incubation in 100% methanol. Cells were washed with 1× Phosphate Buffered Saline (PBS) pH 7.4 (GIBCO) and incubated in PBS containing 20 μM Hoechst 33258 (Molecular Probes) for 20 mins. Cells were then washed 3 times with 1×PBS and stored in 1×PBS at 4° C. until they were imaged for microscopy.
One 4×4 tile mosaic was acquired from the center of each well using a Zeiss 510 Meta laser confocal microscope and LSM 510 Meta software. Images were imported into image analysis software ImageJ (National Institutes of Health, Bethesda, Md.) and batch processed using custom macros. An Otsu auto threshold was applied to each image of Hoechst-stained nuclei, and the area of each detected object was recorded. Objects with areas <10 μm^2 were excluded from analysis. To estimate percentage non-pyknotic nuclei, a size cutoff value was chosen above which objects were assumed to be non-pyknotic. […]

primary human RPE cells = assay: UOS-induced cell death in primary human RPE cells (Hoechst staining); type: cell-based; conditions: NPD1 200 nM, 16 h; H2O2 (800 μM) alone 50% cell death
Experimental: Primary human retinal pigment epithelia (RPE) cells, prepared from donor eyes without eye pathology, were plated and transformed after passage eight. Cells were cultured in T75 flasks in MEM medium containing 10% FBS, 5% NCS, MEM-NEAA (ThermoFisher Scientific, Waltham, Mass.), 1× penicillin/streptomycin and 10 ng/ml FGF at 37° C. 5% CO2, 99% relative humidity for 24-48 h followed by a 24-h incubation with 10 μM free 32:6 and 34:6 fatty acid mixture.
For cell viability assay experiments hRPE cells were treated concomitantly with NPD1 (200 nM), 32-6, 34-6 (3 μM each) fatty acids or both 32-6 and 34-6 simultaneously. The hRPE medium was supplemented with 3 μM of 32-6 and 34-6 for the entire duration of the experiment. 15 lox-1 inhibitor (10 μM) was added to the cells 1 hour prior the OS induction and kept throughout the experiment. Cells were fixed with 4% PFA and stained with Hoescht.
To assess cell death, hRPE and ARPE-19 cells were fixed with methanol for 15 mins, washed with 1×PBS then loaded with 2 μM Hoechst dissolved in a Locke's solution (Promega) and incubated for another 15 mins before imaging. Cells were then viewed by using a Zeiss LSM 510 confocal microscope under UV fluorescence. Images were recorded and cell apoptosis was assessed by using an automated unbiased method.

ARPE-19 cells = assay: UOS-induced apoptosis in ARPE-19 cells (Hoechst-positive pyknotic cells); type: cell-based, human; conditions: 1 μM, RPE cells undergoing UOS
Experimental: FIGS. 6A and 6B depicts immunostaining of primary human RPE cells using specific markers ZO-1 (Zona occludens-1), RPE65, MITF (Micro-ophtalmia-associated Transcription Factor) and β-catenin, as well as light microscopy depicting primary human RPE cell morphology at different passages in culture. ARPE-19 cells were grown and maintained in T-75 mM flasks in DMEM F-12 medium containing 10% FBS and incubated at 37° C. with a constant supply of 5% CO2. Cells at 75-80% confluence (72 h growth in DMEM/F12+10% FBS) in 6-well plates were serum-starved for 8 h before exposure. The serum-starved cells were treated with TNF-α (Sigma-Aldrich, St. Louis, Mo.) (10 ng/ml) and H2O2 (600 μM) to induce oxidative stress and challenged with increasing concentrations (50-500 nM) of VLC-PUFA (C32:6n3 and C34:6n3) simultaneously with oxidative stress for 16 h (apoptosis) and 6 h (Western-blot) before detection of apoptosis and harvesting for protein analysis. In some experiments, DHA at a concentration of 100 nM and 15-LOX-1 inhibitor PD146176 at a concentration of 1 μM was added to treat the RPE cells under stress. Cell extracts were made and protein concentrations adjusted by Bio-Rad (Hercules, Calif.) protein reagent and used for Western blot analysis. To assess cell death, hRPE and ARPE-19 cells were fixed with methanol for 15 mins, washed with 1×PBS then loaded with 2 μM Hoechst dissolved in a Locke's solution (Promega) and incubated for another 15 mins before imaging. Cells were then viewed by using a Zeiss LSM 510 confocal microscope under UV fluorescence. Images were recorded and cell apoptosis was assessed by using an automated unbiased method.

| Compound | Prohibitin (type-1) expression (ARPE-19 cells under UOS) | pro-apoptotic Bax (ARPE-19 cells under UOS) | pro-apoptotic Bid (ARPE-19 cells under UOS) | pro-apoptotic Bim (ARPE-19 cells under UOS) | further results |
| --- | --- | --- | --- | --- | --- |
| CC/C=C\C[C@H](O)\C=C/C=C/C=C/[C@H](O)C/C=C\C/C=C\CCCCCCCCCCCCC(=O)O [ELV-N32, (14Z,17Z,20R,21E,23E,25Z,27S,29Z)-20,27-dihydroxydo-triaconta-14,17,21,23,25,29-hexaenoic acid] | upregulated | decreased | decreased | decreased |  |
| CC/C=C\C[C@H](O)\C=C/C=C/C=C/[C@H](O)C/C=C\C/C=C\CCCCCCCCCCCCCCC(=O)O [ELV-N34, (16Z,19Z,22R,23E,25E,27Z,29S,31Z)-22,29-dihydroxytetra-triaconta-16,19,23,25,27,31-hexaenoic acid] | upregulated | decreased | decreased | decreased | NMDA-induced neuronal death ([1]; ELV (Na or Me) 200 nM or 500 nM added along with NMDA 25, 50 or 100 μM, 12 h): compensated for |
| CC/C=C\C[C@H](O)\C=C/C=C/C=C/[C@H](O)C/C=C\C/C=C\CCC(=O)O [NPD1, 10R,17S-dihydroxy-docosa-4Z,7Z,11E,13E,15Z,19Z-hexaenoic acid] |  |  |  |  | apoptosis (primary human RPE cells): 11% |
| c1ccc2c(c1)SCc1c-2[nH]c2ccccc12 [PD146176, reference compound] |  |  |  |  | effect of 15-LOX-1 inhibitor on ELV-mediated inhibition of apoptosis (ARPE-19 cells): compensate for ELV-mediated inhibition of apoptosis; effect of 15-LOX-1 inhibitor on ELV-induced upregulation (ARPE-19 cells under UOS; 1 μM, ARPE-19 cells undergoing UOS): blocked these effects |
| MK801 maleate [reference compound] |  |  |  |  | NMDA excitotoxicity ([1]; 10 μM): overcome |
